Results as given in article PMC4168161, “A novel approach for the discovery of chemically diverse anti-malarial compounds targeting the Plasmodium falciparum Coenzyme A synthesis pathway” (Malaria Journal, 2014).

Experiments:
[1] = tested on: P. falciparum CoA synthesis pathway; assay: Coenzyme A chemical rescue assay on P. falciparum; assay type: cell-based, Plasmodium falciparum; details: for IC50 shift upon CoA supplementation: eight-point dose response, fixed CoA (0.8-2 mM), n = 2
Experimental: The well-established P. falciparum imaging assay was modified to allow assessment of chemical rescue with CoA. In brief, sorbitol (5% w/v) synchronization was performed twice, approximately 8 hr apart, on each synchronization day for two consecutive ring cycles, i.e., on day 1 and 3 of assay preparation. On day 2 the culture was split to approximately 2% trophozoite parasitaemia. On day 4 the culture was split to 1-1.5% trophozoite parasitaemia, which yielded approximately 8% ring parasitaemia after 48 hr (on day 5, i.e., the day of the assay set-up). Compound stocks (10 mM in 100% DMSO) were diluted 1:25 in sterile water, less than 24 hr prior to use. An additional 1:10 dilution was performed, resulting in a 1:250 overall compound dilution and a final DMSO concentration of 0.4%. For initial screening, compounds were tested at a final 2 μM concentration. […] The known P. falciparum CoA synthesis inhibitor, panthenol, was prepared as a 100 mM solution in 4% DMSO. The final concentration of the dose response curve of panthenol started at 10 mM and was serially diluted down to 100 nM. CoA was dissolved in water. […] Five μl of the 1:25 diluted test compound or control solutions were added to 384-well CellCarrier imaging plates (PerkinElmer). For the chemical rescue, 5 μl of CoA solution were added to ‘rescue’ wells and 5 μl water to all control and reference wells, respectively. Parasite culture was added to a final concentration of 1% parasitaemia (% P) and 0.3% haematocrit (% H). Plates were incubated for 72 hr at 37°C, 5% CO2 and 95% humidity. On day 8 the permeabilization and nuclear staining buffer was prepared in PBS containing 10 μg/ml saponin, 0.01% triton X, 5 mM EDTA (all: Sigma) and 0.5 μg/ml 4′,6-diamidino-2-phenylindole (DAPI; Life Technologies). The plates were left for at least 4 hr (typically overnight), before confocal imaging on an Opera™ High Content Screening Platform (PerkinElmer) at 405 nm excitation with a 20x water objective. Automated primary image analysis was performed concurrent with the imaging process, utilizing an Acapella® software (PerkinElmer) script to determine the number of parasites based on object size and fluorescence intensity. Determination of the % growth compared to controls (2 μM artemisinin as positive and 0.4% DMSO as negative control) was performed in Microsoft® Excel 2010. Statistical analysis including IC50 determination and graphical output was performed in GraphPad Prism® 5 using non-linear regression variable slope curve fitting. Cell-based high throughput screening (HTS) entails the distinct benefit that positive hits have already proven effective against the live parasite within its natural host erythrocyte environment. Modifications of an image-based assay were undertaken to identify compounds that interfere with the P. falciparum CoA pathway. The modification involved a chemical rescue approach adapted from a similar method used to investigate apicoplast function. The principle idea of the chemical rescue approach is that supplementation of an unbranched pathway’s end product – in this case CoA - should abrogate, or at least alleviate, negative growth effects of compounds inhibiting any step in the pathway. […] To identify new potential CoA synthesis inhibitors, the CoA chemical rescue approach was used to screen 144 compounds with known antiplasmodial activity identified by HTS in the Avery laboratory, in addition to the MMV malaria box. […] Compounds which rescued growth to at least 50% of control values and two-fold difference compared to treatment alone, were regarded as partial rescue hits.

[2] = tested on: 3D7 parasites; assay: Time course for parasite stage affected and phenotype (Giemsa smears); assay type: cell-based, Plasmodium falciparum; details: for parasite stage of action / phenotype: compound at IC80, 0-48 hr
Experimental: The principle of the P. falciparum imaging assay described above was used, with the exception that the parasite synchronization was adjusted to yield parasites synchronized to a 2-hr window as established in-house. In brief, sorbitol synchronization was performed twice (approximately 8 hr apart) on day 1 and only once on day 3 (around 10.00). Schizonts observed on day 4 were left to mature and when rings were first observed, the mature schizonts were isolated using a MACS® column (Miltenyi Biotec). The purified schizonts were incubated for 2 hr at 37°C, 5% CO2 and 5% O2 and 90% N2 on a shaker. The obtained 0-2 hr old ring stage parasites were isolated by removing the remaining schizonts by flow through a MACS® column and the highly synchronized rings obtained were seeded in the assay plates with the compounds as described above. At each time point, one whole columns (16 wells) of identically treated parasites, i.e., 0.4% DMSO as control, compound at its individual IC80 or compound at IC80 plus CoA, were pooled and centrifuged. A smear was made from the pellet and stained with Giemsa (Sigma) for assessment the phenotype of treated parasites with or without supplementation of 0.8 mM CoA in comparison to DMSO controls.
The parasite viability assay used above is an endpoint assay that spans two development cycles of the parasite. To investigate the parasite stage of action of the identified compounds and the phenotype of compound treated parasites, a light microscopy-based time course study was undertaken. The seven compounds of submicromolar activity were added at time point t0 at their respective IC80 concentrations, with and without the addition of 0.8 mM CoA. The 3D7 parasites used in this experiment were age synchronized to within a 2-hr window of the ring stage. Due to assay preparation time, the parasite age at t0 therefore ranged from 0.5 hr to 2.5 hr.
At t0, t18, t24 and t48 parasite cultures for all conditions were centrifuged and Giemsa-stained blood smears were prepared. The 18-hr treatment time point was specifically chosen, since it was expected to see the transition between ring and trophozoite stage in control cultures around this time point (parasite age range 18.5 hr to […]). Therefore any delay in the transition from ring to trophozoite stage under treatment with the compounds was expected to be discernible at this time point.

[3] = at 2 μM compound, with CoA supplementation
[4] = compound at IC80 plus 0.8 mM CoA
[5] = compound at IC80 plus 0.8 mM CoA, t24
[6] = compound at IC80 plus 0.8 mM CoA, t48
[7] = compound at ~ IC80, with CoA supplementation

Compound	CoA rescue (relative parasite number, % of untreated control) [1, 3]	IC50 shift upon CoA supplementation [1]	parasite stage of action / phenotype [2]	CoA rescue of stage progression / phenotype [2, 4]	CoA rescue (relative parasite number, % of untreated control) [1, 7]	other results
CCOc1ccc(Nc2c3ccccc3nc3ccccc23)cc1.Cl [MMV000304/Amb636705]	80% rescue at 2 μM	1.5 times				
CCc1ccc(Nc2cc(C)c3ccc(O)cc3n2)cc1.Cl [MMV000570/C614-0191]		more than doubled	affects both the development of the ring and trophozoite stage of the parasite	Addition of CoA did not alleviate this developmental delay	80% rescue at ~ IC80	dead or dying parasites (relative parasitaemia) ([2]; compound at IC80, t24): around 28%; dead or dying parasites (relative parasitaemia) ([2]; compound at IC80, t48): ~20%; dead or dying parasites (relative parasitaemia) [2, 5]: 13.4%; dead or dying parasites (relative parasitaemia) [2, 6]: 8.3%
COc1ccc2c(=O)cc(C(Cl)(Cl)Cl)oc2c1 [MMV665820/5534045]	80% rescue at 2 μM	greater than six times	main compound action is on the trophozoite stage	CoA addition effectively rescued both parasite development and morphology		relative parasitaemia of trophozoites showing abnormal morphology ([2]; compound at IC80, t24): 42.9%; relative parasitaemia of dead or dying trophozoites ([2]; compound at IC80, t48): 13.8%; relative parasitaemia of trophozoites showing abnormal morphology ([2]; compound at IC80, t48): 26.6%; CoA rescue hit confirmation ([1]; retest): confirmed as a hit
CC1=CC(=O)C(C(C)C)=C/C1=N/OS(=O)(=O)c1ccccc1 [STK 740987]	50% rescue at 2 μM	greater than six times	no change in the stage composition of rings and trophozoites compared to the controls			dead or dying parasites (relative parasitaemia) ([2]; compound at IC80, t24): around 16%
CC(=O)c1ccc2c3c(onc13)-c1ccccc1C2=O [Amb3377585]		greater than six times	killing both the ring and the trophozoite stage of the parasite from approximately t24	very good rescue of parasite development, death rates and morphology	50% rescue at ~ IC80	death rate of parasites (relative parasitaemia) ([2]; compound at IC80, from t24 onwards): 49%; abnormal trophozoites as share of all counted living trophozoites ([2]; compound at IC80, t48): 51%; relative parasitaemia of trophozoites showing abnormal morphology ([2]; compound at IC80, t48): 30.5%
CC(C)=NOC(=O)c1c(C)noc1-c1snnc1C [SPB03400]		1.5 times	No change in the relative parasitaemia of rings or trophozoites compared to the untreated controls		50% rescue at ~ IC80	ring form parasites showing abnormal morphologies ([2]; compound at IC80, t48): around 50%
Cc1csc(Sc2ncnc3sccc23)n1 [Amb180780]		greater than six times	arrest parasite development at the ring stage	rescued very well by CoA addition	80% rescue at ~ IC80	compound-treated parasites able to progress from the ring to the trophozoite stage ([2]; compound at IC80): Less than 13%; dead or dying parasites (relative parasitaemia) ([2]; compound at IC80, t48): 28.6%; dead or dying parasites (relative parasitaemia) [2, 5]: 20%; dead or dying parasites (relative parasitaemia) [2, 6]: control levels
